Laboratory results published in patent publication US7285621B2, “Multiple branch peptide construction” (Ambrilia Biopharma, priority 1999, dated 2007).
Where two headings read alike, the source gives them in different places.

What was measured:
HIV-1NL4-3 [1] = assay: HIV-1NL4-3 infection of C8166 cells (syncytia formation, p24 ELISA); type: cell-based; set-up: key to Syncytium formation: ++: number of syncytia present in the well were similar to that in control untreated well (35 to 40 syncitia per well); −: total absence of syncitia in the well; ±: presence of 1 to 3 syncitia in the well; settings: for P24 / Syncytium formation: C8166 cells
Method: C8188 cells were infected with HIV to establish a baseline control. Similar C8188 cells were pretreated the invented MBPCs and then subjected to HIV to determine inhibition rates. The results are illustrated in FIGS. 1A, 1B and 2.
Samples of 3×10^5 C8166 cells were placed in 96-well plates in a volume of 100 μl of culture medium containing various concentrations of peptide. After a one hour treatment at 37° C., 100 μl of viral solution of HIV-1NL4-3 were added. The cells were exposed to the virus of one hour at 37° C. at a multiplicity of infection of 1,000 TCID50 per ml. After through washing, cells were replaced in 1 ml of R10 with the treatment in 24-well plates and cultured in a 37° C. incubator. C8166 culture medium was replaced at day-4 post-infection. During this assay, treatment with peptide was permanent (before, during and after infection). Assays on C8166 cells have been performed at least twice and in duplicate. Toxicity was evaluated by daily cell count and trypan-blue exclusion assay. Infection of C8166 T-Cells with HIV-1NL4-3 was assessed by virus-induced cytopathic effect (syncytia formation) and by quantification of p24 viral protein in the culture supernatants. Measurements of HIV-1 p24^gag concentrations in the culture supernatants were achieved by ELISA, with a detection cut-off of 5 pg/ml (p24 HIV kit, NEN Dupont, Belgium; Quanti-Kine software, RILAB, Genova, Italy).

H × 10 (HIV-1) strain = system: H × 10 (HIV-1) strain
Method: SPC3 is (GPGRAF)8-(K)4-(K)2-K-βA-OH as disclosed in WO95/07929. D4 and D5 refer to days 4 and 5 of the experiment. OD stands for Optical Density. N.B. Experiments were performed with non diluted virus solution.

C57/BL6 and Balb-C mice = assay: Intra-cerebroventricular injection toxicity in mice; type: in vivo; settings: 3×10^−3 M, 100 μg of peptide per 20 g mouse
HIV-1NL4-3 [2] = assay: HIV-1NL4-3 infection of human PBLs/PBMCs (p24 ELISA); type: cell-based; settings: at a concentration of 1 μM
Method: Human peripheral blood lymphocytes (PBLs) obtained from healthy HIV-seronegative donor (Etablissement Francais du Sang, Marseille, France) were isolated by ficoll-Hypaque gradient centrifugation. Cells were cultured in R10 medium supplemented with 20 units/ml of interleukin-2 (IL-2, Proleukin, Chiron, The Netherlands). R10 medium consists of RPMI 1640 supplemented with 2 mM ultraglutamine (BioWhittaker, Vervires, Belgium), penicillin (100 units/ml), streptomycin (100 μg/ml), and 10% heat-inactivated fetal calf serum (BioWhittaker). Cells were first stimulated with phytohemaggiutinin (20 μg/ml)-supplemented R10 (PHA P, DIFCO, Detroit, Mich., USA) for three days. Then, the medium was replaced with R10 supplemented with IL2 (20 units/ml), and subsequently cultures and experiments were carried out in this medium in a 37° C. humidified incubator with 5% CO2.
Samples of 10^6 human PBLs were placed in 96-well plates in 100 μl of R10 containing various concentrations of peptide. After one hour treatment of 37° C., 100 μl of viral solution of HIV-1NL4-3 were added. The cells were exposed to the virus for one hour at 37° C. flushed with 5% CO2. The PBL culture medium was replaced every 3-4 days. The cell viability was assessed by cell counts and trypan-blue exclusion assay. The viral production in the culture supernatant was quantified by p24 ELISA test, as described supra. […]

HIV-1 W5A2A9 isolate = assay: Inhibition of clinical isolates infectivity; type: cell-based; settings: non-diluted virus solution
Description: The gp41-derived MBPCs of the invention have been tested in vitro for their ability to inhibit HIV-induced syncytium formation, and infection of human lymphocytes by both HIV-1 and HIV-2 viruses (several laboratory strains including LAV-2B, an HIV-2 virus able to infect some CD4^−/GalCer^− cells, as well as clinical isolates such as JRCSF, P16/B6 and P16/C9). […] Similar results were obtained with other HIV strains and clinical isolates tested so far.
Example shown is the HIV-1 W5A2A9 isolate. N.B. Experiments were performed with non-diluted virus solution.

[3] = Molarity 1 × 10^−5, day 4, non diluted virus solution
[4] = Molarity 1 × 10^−6, day 4, non diluted virus solution
[5] = Molarity 5 × 10^−5, day 4, non diluted virus solution
[6] = Molarity 5 × 10^−5, day 5, non diluted virus solution
[7] = Molarity 5 × 10^−6, day 4, non diluted virus solution

Compound: Cc1cn([C@H]2C[C@H](N=[N+]=[N-])[C@@H](CO)O2)c(=O)[nH]c1=O [AZT, reference compound]
- P24 (HIV-1NL4-3 [1]; peptide 1 μm): 0 pg/mL
- Syncytium formation (HIV-1NL4-3 [1]; peptide 1 μm): −
- P24 (HIV-1NL4-3 [1]; peptide 10 μm): 0 pg/mL
- Syncytium formation (HIV-1NL4-3 [1]; peptide 10 μm): −

Compound: CC(C)C[C@H](NC(=O)[C@@H]1CCCN1C(=O)[C@H](CO)NC(=O)[C@H](Cc1ccc(O)cc1)NC(=O)CNC(=O)[C@H](CCC(N)=O)NC(=O)[C@@H](N)CCCNC(=N)N)C(=O)NCCCC[C@H](NC(=O)[C@H](CC(C)C)NC(=O)[C@@H]1CCCN1C(=O)[C@H](CO)NC(=O)[C@H](Cc1ccc(O)cc1)NC(=O)CNC(=O)[C@H](CCC(N)=O)NC(=O)[C@@H](N)CCCNC(=N)N)C(=O)NCCCC[C@H](NC(=O)[C@H](CCCCNC(=O)[C@H](CC(C)C)NC(=O)[C@@H]1CCCN1C(=O)[C@H](CO)NC(=O)[C@H](Cc1ccc(O)cc1)NC(=O)CNC(=O)[C@H](CCC(N)=O)NC(=O)[C@@H](N)CCCNC(=N)N)NC(=O)[C@H](CC(C)C)NC(=O)[C@@H]1CCCN1C(=O)[C@H](CO)NC(=O)[C@H](Cc1ccc(O)cc1)NC(=O)CNC(=O)[C@H](CCC(N)=O)NC(=O)[C@@H](N)CCCNC(=N)N)C(=O)NCCCC[C@H](NC(=O)[C@H](CCCCNC(=O)[C@H](CCCCNC(=O)[C@H](CC(C)C)NC(=O)[C@@H]1CCCN1C(=O)[C@H](CO)NC(=O)[C@H](Cc1ccc(O)cc1)NC(=O)CNC(=O)[C@H](CCC(N)=O)NC(=O)[C@@H](N)CCCNC(=N)N)NC(=O)[C@H](CC(C)C)NC(=O)[C@@H]1CCCN1C(=O)[C@H](CO)NC(=O)[C@H](Cc1ccc(O)cc1)NC(=O)CNC(=O)[C@H](CCC(N)=O)NC(=O)[C@@H](N)CCCNC(=N)N)NC(=O)[C@H](CCCCNC(=O)[C@H](CC(C)C)NC(=O)[C@@H]1CCCN1C(=O)[C@H](CO)NC(=O)[C@H](Cc1ccc(O)cc1)NC(=O)CNC(=O)[C@H](CCC(N)=O)NC(=O)[C@@H](N)CCCNC(=N)N)NC(=O)[C@H](CC(C)C)NC(=O)[C@@H]1CCCN1C(=O)[C@H](CO)NC(=O)[C@H](Cc1ccc(O)cc1)NC(=O)CNC(=O)[C@H](CCC(N)=O)NC(=O)[C@@H](N)CCCNC(=N)N)C(=O)NCCC(=O)O [RL1, (RQGYSPL)8-(K)4-(K)2-K-βA-OH]
- Inhibition (H × 10 (HIV-1) strain; [3]): 79.82%
- Inhibition (H × 10 (HIV-1) strain; [4]): 31.29%
- Inhibition (H × 10 (HIV-1) strain; [5]): 99.09%
- Inhibition (H × 10 (HIV-1) strain; [6]): 99.75%
- Inhibition (H × 10 (HIV-1) strain; [7]): 61.45%
- cellular toxicity and lethal activity (C57/BL6 and Balb-C mice): neither cellular toxicity nor lethal activity

Compound: (AcRQGYSPL)2-K-βA [Peptide 12]
- Syncytium formation (HIV-1NL4-3 [1]; peptide 1 μm): ++ (number of syncytia present in the well were similar to that in control untreated well (35 to 40 syncitia per well))
- Syncytium formation (HIV-1NL4-3 [1]; peptide 10 μm): ++ (number of syncytia present in the well were similar to that in control untreated well (35 to 40 syncitia per well))

Compound: (D RQGYSPL)2-K-βA [Peptide 9]
- Syncytium formation (HIV-1NL4-3 [1]; peptide 1 μm): ++ (number of syncytia present in the well were similar to that in control untreated well (35 to 40 syncitia per well))
- Syncytium formation (HIV-1NL4-3 [1]; peptide 10 μm): ++ (number of syncytia present in the well were similar to that in control untreated well (35 to 40 syncitia per well))

Compound: (D-LPSYGQR)8-K4-K2-K-βA
- inhibition of HIV infection of C8166 cells (HIV-1NL4-3 [1]; at a concentration of 1 μM): totally inhibit
- inhibition of HIV infection of PBMCs (HIV-1NL4-3 [2]): totally inhibit

Compound: (GPGRAF)8-(K)4-(K)2-K-βA-OH [SPC3]
- Inhibition (H × 10 (HIV-1) strain; [3]): 89.13%
- p24 (H × 10 (HIV-1) strain; [3]): 0.4865 ng/mL
- Inhibition (H × 10 (HIV-1) strain; [4]): 0%
- p24 (H × 10 (HIV-1) strain; [4]): 4.786 ng/mL
- Inhibition (H × 10 (HIV-1) strain; [5]): 98.89%
- p24 (H × 10 (HIV-1) strain; [5]): 0.05556 ng/mL
- Inhibition (H × 10 (HIV-1) strain; [6]): 98.47%
- p24 (H × 10 (HIV-1) strain; [6]): 0.09351 ng/mL
- Inhibition (H × 10 (HIV-1) strain; [7]): 50.78%
- p24 (H × 10 (HIV-1) strain; [7]): 2.216 ng/mL
- Inhibition (%) of clinical isolates infectivity (HIV-1 W5A2A9 isolate; [conc] 1 × 10^−5, HIV-1 W5A2A9 isolate): 85.7%
- Inhibition (%) of clinical isolates infectivity (HIV-1 W5A2A9 isolate; [conc] 1 × 10^−6, HIV-1 W5A2A9 isolate): 28.6%
- Inhibition (%) of clinical isolates infectivity (HIV-1 W5A2A9 isolate; [conc] 1 × 10^−7, HIV-1 W5A2A9 isolate): 0%
- Inhibition (%) of clinical isolates infectivity (HIV-1 W5A2A9 isolate; [conc] 5 × 10^−6, HIV-1 W5A2A9 isolate): 50.0%
- Inhibition (%) of clinical isolates infectivity (HIV-1 W5A2A9 isolate; [conc] 5 × 10^−7, HIV-1 W5A2A9 isolate): 0%
- Inhibition (%) of clinical isolates infectivity (HIV-1 W5A2A9 isolate; [conc] 5 × 10^−8, HIV-1 W5A2A9 isolate): 0%

Compound: (GYSPL)2-K-βA [Peptide 6]
- Syncytium formation (HIV-1NL4-3 [1]; peptide 1 μm): ± (presence of 1 to 3 syncitia in the well)
- Syncytium formation (HIV-1NL4-3 [1]; peptide 10 μm): ± (presence of 1 to 3 syncitia in the well)

Compound: (KQGYSPL)2-K-βA [Peptide 10]
- Syncytium formation (HIV-1NL4-3 [1]; peptide 1 μm): ++ (number of syncytia present in the well were similar to that in control untreated well (35 to 40 syncitia per well))
- Syncytium formation (HIV-1NL4-3 [1]; peptide 10 μm): ++ (number of syncytia present in the well were similar to that in control untreated well (35 to 40 syncitia per well))

Compound: (LPSYGQR)8-K4-K2—K-βA
- inhibition of syncytium formation and p24 production of HIV-infected cells (HIV-1NL4-3 [1]; 5 μM): 100%
